Molecules are shown by their SMILES.

T2 sequence (Q9H3N8 whole entry): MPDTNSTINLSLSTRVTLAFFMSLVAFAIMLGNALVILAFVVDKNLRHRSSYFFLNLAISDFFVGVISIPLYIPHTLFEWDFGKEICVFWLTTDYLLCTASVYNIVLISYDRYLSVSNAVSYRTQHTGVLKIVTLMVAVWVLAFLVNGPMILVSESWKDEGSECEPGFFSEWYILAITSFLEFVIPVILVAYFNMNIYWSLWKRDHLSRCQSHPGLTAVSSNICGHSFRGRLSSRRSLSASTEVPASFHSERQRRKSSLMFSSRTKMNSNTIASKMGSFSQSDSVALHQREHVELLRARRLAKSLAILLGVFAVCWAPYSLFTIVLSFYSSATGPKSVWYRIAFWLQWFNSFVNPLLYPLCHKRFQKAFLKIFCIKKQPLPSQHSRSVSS

In the first experiment the target is T1, human H1 (Homo sapiens, UniProt P35367).
T1 construct: host or cells: CHO-K1, also expressing mitochondrion-targeted aequorin
T1 sequence (P35367 whole entry): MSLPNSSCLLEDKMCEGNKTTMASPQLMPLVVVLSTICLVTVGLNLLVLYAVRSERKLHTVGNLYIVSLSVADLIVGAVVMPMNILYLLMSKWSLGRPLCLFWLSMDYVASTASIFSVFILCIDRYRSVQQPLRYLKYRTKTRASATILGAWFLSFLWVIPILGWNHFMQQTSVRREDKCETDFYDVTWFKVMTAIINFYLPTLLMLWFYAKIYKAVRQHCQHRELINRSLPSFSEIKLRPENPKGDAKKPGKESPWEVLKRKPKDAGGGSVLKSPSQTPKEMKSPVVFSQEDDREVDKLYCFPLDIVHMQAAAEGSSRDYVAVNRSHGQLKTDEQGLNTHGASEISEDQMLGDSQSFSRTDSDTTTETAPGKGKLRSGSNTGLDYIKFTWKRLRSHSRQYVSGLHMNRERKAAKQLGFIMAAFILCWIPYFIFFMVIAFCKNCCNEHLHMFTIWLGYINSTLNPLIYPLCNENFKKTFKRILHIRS
Description: In vitro histamine H1 receptor cell-based aequorin bioluminescence antagonist assay. The note with it: CHO-K1 cells expressing human H1 and aequorin; histamine at EC80; read-out: H1 Antagonist EC50. The procedure, abridged: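 CHO-K1 cells stably expressing human H1 or H4 plus mitochondrial aequorin (H4 also with Gα16), loaded with 5 μM coelenterazine-h for 4 h at ~21 °C. Compounds preincubated 15 min at room temperature, then histamine at EC80 added.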
As to `Cc1csc2ncnc(N3CCN(c4ccc(C(F)(F)F)cn4)CC3)c12` [Example 2, 5-methyl-4-(4-(5-(trifluoromethyl)pyridin-2-yl)piperazin-1-yl)thieno[2,3-d]pyrimidine], the EC50 (usually the concentration needed to bring the measured effect to its halfway point) is over 10 µM.
Same read-out and setting: to `Cc1csc2ncnc(N3CCN(c4ccccc4Cl)CC3)c12` [Example 3, 4-(4-(2-chlorophenyl)piperazin-1-yl)-5-methylthieno[2,3-d]pyrimidine] belongs over 10 µM; to `COc1ccc(N2CCN(c3ncnc4scc(C)c34)CC2)cc1OC` [Example 4, 4-(4-(3,4-dimethoxyphenyl)piperazin-1-yl)-5-methylthieno[2,3-d]pyrimidine], over 10 µM; to `Clc1ccc(CCNc2ncnc3[nH]ccc23)cc1` [Example 28, N-(4-chlorophenethyl)-7H-pyrrolo[2,3-d]pyrimidin-4-amine], over 10 µM.
On the same count and under the same terms, to `Cc1csc2ncnc(CCNc3ccc(Cl)cc3)c12` [Example 32, 4-chloro-N-(2-(5-methylthieno[2,3-d]pyrimidin-4-yl)ethyl)aniline] belongs over 10 µM.
Still for that read-out and setting: to `Cc1csc2ncnc(CC(=O)Nc3ccc(Cl)cc3)c12` [Example 33, N-(4-chlorophenyl)-2-(5-methylthieno[2,3-d]pyrimidin-4-yl)acetamide] belongs over 10 µM; to `Cc1csc2ncnc(N3CCN(c4ccc([N+](=O)[O-])cc4)CC3)c12` [Example 273, 1-{5-methylthieno[2,3-d]pyrimidin-4-yl}-4-(4-nitrophenyl)piperazine], over 10 µM.
`Cc1csc2ncnc(N(CCc3ccccc3)Cc3ccccc3)c12` [Example 277, N-benzyl-5-methyl-N-(2-phenylethyl)thieno[2,3-d]pyrimidin-4-amine]: the EC50 was over 10 µM.
On the same count and under the same terms, to `Cc1csc2ncnc(N3CCN(c4ccc(C(F)(F)F)cc4)CC3)c12` [Example 287, 1-{5-methylthieno[2,3-d]pyrimidin-4-yl}-4-[4-(trifluoromethyl)phenyl]piperazine] belongs over 10 µM.
Turning to `c1ccc(CCNc2ncnc3sccc23)cc1` [Example 290, N-phenethylthieno[2,3-d]pyrimidin-4-amine], the EC50 is over 10 µM.
For the compound `Cc1csc2c(NCCc3ccc(Cl)cc3)ncnc12` [Example 295, N-(4-chlorophenethyl)-7-methylthieno[3,2-d]pyrimidin-4-amine], the EC50 was over 10 µM.
On to `COc1ccc(CCNc2nc(C)nc3sc(C)c(C)c23)cc1OC` [Example 296, N-(3,4-dimethoxyphenethyl)-2,5,6-trimethylthieno[2,3-d]pyrimidin-4-amine], for which the EC50 was over 10 µM.
Same read-out and setting: then `Clc1ccccc1CCNc1ncnc2sc3c(c12)CCCC3` [Example 297], with over 10 µM; and `CCOC(=O)CNc1ncnc2scc(-c3ccccc3)c12` [Example 300, Ethyl 2-(5-phenylthieno[2,3-d]pyrimidin-4-ylamino)acetate], with over 10 µM.
On the same count and under the same terms, to `Cc1sc2ncnc(NCCc3ccc(S(N)(=O)=O)cc3)c2c1C` [Example 301, 4-(2-(5,6-dimethylthieno[2,3-d]pyrimidin-4-ylamino)ethyl)benzenesulfonamide] belongs over 10 µM; to `c1ccc(CC2CCN(c3ncnc4sccc34)CC2)cc1` [Example 302, 4-(4-benzylpiperidin-1-yl)thieno[2,3-d]pyrimidine], over 10 µM; to `COCC(C)n1c(C)cc(C(=O)CSc2ncnc3sc(C)c(C)c23)c1C` (stereo not drawn) [Example 303, 2-(5,6-dimethylthieno[2,3-d]pyrimidin-4-ylthio)-1-(1-(1-methoxypropan-2-yl)-2,5-dimethyl-1H-pyrrol-3-yl)ethanone], over 10 µM.
As for `CC(=O)c1c(C)[nH]c(C(=O)CSc2ncnc3sc(C)c(C)c23)c1C` [Example 304, 1-(4-acetyl-3,5-dimethyl-1H-pyrrol-2-yl)-2-(5,6-dimethylthieno[2,3-d]pyrimidin-4-ylthio)ethanone], the EC50 is over 10 µM.
Same read-out and setting: to `Cc1sc2ncnc(N3CCC(C(=O)OCc4ccc(C#N)cc4)CC3)c2c1C` [Example 306, 4-cyanobenzyl 1-(5,6-dimethylthieno[2,3-d]pyrimidin-4-yl)piperidine-4-carboxylate] belongs over 10 µM; to `CCCC(Nc1ncnc2sccc12)c1ccccc1` (stereo not drawn) [Example 307, N-(1-phenylbutyl)thieno[2,3-d]pyrimidin-4-amine], over 10 µM.
The same measure, in the same setting: to `CC(C)(CNc1ncnc2sccc12)N1CCOCC1` [Example 308, N-(2-methyl-2-morpholinopropyl)thieno[2,3-d]pyrimidin-4-amine] belongs over 10 µM; to `c1nc(NCc2ccc(CN3CCOCC3)cc2)c2c3c(sc2n1)CCC3` [Example 309], over 10 µM; to `Cc1sc2ncnc(N3CCN(S(=O)(=O)c4ccc(C(C)(C)C)cc4)CC3)c2c1C` [Example 310, 4-(4-(4-tert-butylphenylsulfonyl)piperazin-1-yl)-5,6-dimethylthieno[2,3-d]pyrimidine], over 10 µM.
Same read-out and setting: then `CC(Nc1ncnc2sccc12)c1ccccc1` (stereo not drawn) [Example 311, N-(1-phenylethyl)thieno[2,3-d]pyrimidin-4-amine], with over 10 µM; and `OCCCCNc1ncnc2scc(-c3ccccc3)c12` [Example 312, 4-(5-phenylthieno[2,3-d]pyrimidin-4-ylamino)butan-1-ol], with over 10 µM.
`Clc1ccc(CCNc2ncnc3sc4c(c23)CCCC4)c(Cl)c1` [Example 313]: the EC50 is over 10 µM.

Another experiment addresses T2, human H4 (Homo sapiens, UniProt Q9H3N8).
T2 construct: host or cells: CHO-K1, also expressing mitochondrion-targeted aequorin and human Gα16
Description: In vitro histamine H4 receptor cell-based aequorin bioluminescence antagonist assay. As to conditions: CHO-K1 cells expressing human H4, aequorin and Gα16; histamine at EC80. Here is the method: In vitro Histamine Receptor Cell-Based Assays
The cell-based assays utilize an aequorin dependent bioluminescence signal. Doubly-transfected, stable CHO—K1 cell lines expressing human H1 or H4, mitochondrion-targeted aequorin, and (H4 only) human G protein Gα16 are obtained from Perkin-Elmer. Cells are maintained in F12 (Ham's) growth medium, containing 10% (vol./vol.) fetal bovine serum, penicillin (100 IU/mL), streptomycin (0.1 mg/mL), zeocin (0.25 mg/mL) and geneticin (0.40 mg/mL). Cell media components are from Invitrogen, Inc. One day prior to assay, the growth medium is replaced with the same, excluding zeocin and geneticin.
For assay preparation, growth medium is aspirated, and cells are rinsed with calcium-free, magnesium-free phosphate-buffered saline, followed by two to three minute incubation in Versene (Invitrogen, Inc.) at 37° C. Assay medium (DMEM:F12 [50:50], phenol-red free, containing 1 mg/mL protease-free bovine serum albumin) is added to collect the released cells, which are then centrifuged. The cell pellet is re-suspended in assay medium, centrifuged once more, and re-suspended in assay medium to a final density of 5×10^6 cells/mL. Coelenterazine-h dye (500 μM in ethanol) is added to a final concentration of 5 μM, and mixed immediately. The conical tube containing the cells is then wrapped with foil to protect the light-sensitive dye. The cells are incubated for four hours further at room temperature (approximately 21° C.) with end-over-end rotation to keep them in suspension.
Just before assay, the dye-loaded cells are diluted to 0.75×10^6 cells/mL (H1 receptor) or 1.5×10^6 cells/mL (H4 receptor) with additional assay medium. Cells are dispensed to 1536 well micro-titer plates at 3 μL/well. To assay receptor antagonism, 60 nl of 100× concentration test compounds in 100% dimethyl sulfoxide (DMSO) are dispensed to the wells, one compound per well, by passive pin transfer, and the plates are incubated for 15 minutes at room temperature. […] The pipette dispenses 3 μL/well of agonist (histamine, at twice the final concentration, where final concentration is a previously determined EC80) in assay medium, with concurrent bioluminescence detection. Agonist activity of test compounds is excluded by separate assays that measure response to test compounds immediately, without added histamine agonist.
CCD image capture on the Lumilux includes a 5 second baseline read prior to agonist addition, and generally a 40 second read per plate after agonist addition. A decrease in bioluminescence signal (measured either as area-under-the-curve, or maximum signal amplitude minus minimum signal amplitude) correlates with receptor antagonism in a dose dependent manner. The negative control is DMSO lacking any test compound. For antagonist assays, the positive controls are diphenhydramine (2-Diphenylmethoxy-N,N-dimethylethylamine, 10 μM final concentration, H1 receptor) or JNJ7777120 (1-[(5-Chloro-1H-indol-2-yl)carbonyl]-4-methyl-piperazine, 10 μM final concentration, H4 receptor). Efficacy is measured as a percentage of positive control activity.
With `Cc1csc2ncnc(N3CCN(c4ccc(C(F)(F)F)cn4)CC3)c12` [Example 2, 5-methyl-4-(4-(5-(trifluoromethyl)pyridin-2-yl)piperazin-1-yl)thieno[2,3-d]pyrimidine], the 50% effective concentration (EC50) was over 10 µM.
Still for that read-out and setting: then `Cc1csc2ncnc(N3CCN(c4ccccc4Cl)CC3)c12` [Example 3, 4-(4-(2-chlorophenyl)piperazin-1-yl)-5-methylthieno[2,3-d]pyrimidine], with over 10 µM.
Same read-out and setting: to `COc1ccc(N2CCN(c3ncnc4scc(C)c34)CC2)cc1OC` [Example 4, 4-(4-(3,4-dimethoxyphenyl)piperazin-1-yl)-5-methylthieno[2,3-d]pyrimidine] belongs over 10 µM; to `c1ccc(CN2CCN(c3ncnc4sc5c(c34)CCCC5)CC2)cc1` [Example 12, 4-(4-benzylpiperazin-1-yl)-5,6-tetrahydrobenzo[b]thiophenethieno[2,3-d]pyrimidine], over 10 µM; to `CN1CCC(N(C)c2ncnc3scc(-c4ccc(Br)cc4)c23)CC1` [Example 13, 5-(4-bromophenyl)-N-methyl-N-(1-methylpiperidin-4-yl)thieno[2,3-d]pyrimidin-4-amine], over 10 µM.
On the same count and under the same terms, to `Clc1ccc(CCNc2ncnc3[nH]ccc23)cc1` [Example 28, N-(4-chlorophenethyl)-7H-pyrrolo[2,3-d]pyrimidin-4-amine] belongs over 10 µM; to `Cc1csc2ncnc(CCNc3ccc(Cl)cc3)c12` [Example 32, 4-chloro-N-(2-(5-methylthieno[2,3-d]pyrimidin-4-yl)ethyl)aniline], over 10 µM; to `Cc1csc2ncnc(CC(=O)Nc3ccc(Cl)cc3)c12` [Example 33, N-(4-chlorophenyl)-2-(5-methylthieno[2,3-d]pyrimidin-4-yl)acetamide], over 10 µM.
On to `Cc1csc2ncnc(N3CCC(N(C)C)C3)c12` (stereo not drawn) [Example 202, N,N-dimethyl-1-{5-methylthieno[2,3-d]pyrimidin-4-yl}pyrrolidin-3-amine], for which the EC50 is over 10 µM.
In turn, `Cc1csc2ncnc(N(C)CCc3ccccn3)c12` [Example 220, N,5-dimethyl-N-[2-(pyridin-2-yl)ethyl]thieno[2,3-d]pyrimidin-4-amine] returned an EC50 of over 10 µM.
Still for that read-out and setting: to `Cc1csc2ncnc(N3CCN(c4ccc(C#N)cn4)CC3)c12` [Example 253, 6-(4-{5-methylthieno[2,3-d]pyrimidin-4-yl}piperazin-1-yl)pyridine-3-carbonitrile] belongs over 10 µM; to `Cc1ccc(C)c(N2CCN(c3ncnc4scc(C)c34)CC2)c1` [Example 259, 1-(2,5-dimethylphenyl)-4-{5-methylthieno[2,3-d]pyrimidin-4-yl}piperazine], over 10 µM; to `Cc1csc2ncnc(N3CCN(c4ccc(Cl)cc4)CC3)c12` [Example 266, 1-(4-chlorophenyl)-4-{5-methylthieno[2,3-d]pyrimidin-4-yl}piperazine], over 10 µM.

The values above are taken from patent US20100063047A1 (KALYPSYS, INC., priority 2008, published 2010).
